Measurements published in BindingDB's records for doi:10.1016/j.bmc.2010.09.053 (Umr Cnrs 7201, 2012).
pIC50: −log10 of the molar value.

Experiment: Inhibition of bovine liver beta-glucosidase

- pIC50: 3.61
Structure (SMILES): C[C@@H]1CNC[C@@H](O)[C@@H](O)[C@@H]1O
